Converted amounts (≈) assume the structure as drawn.
Assays:
[1] = test system: Staphylococcus aureus; experiment: Antibacterial activity against Staphylococcus aureus TCH1516 assessed as inhibition of bacterial growth incubated for 24 hrs by CLSI based broth microdilution method; assay type: functional
[2] = test system: Streptococcus; experiment: Antibacterial activity against Streptococcus M1T1 assessed as inhibition of bacterial growth incubated for 24 hrs by CLSI based broth microdilution method; assay type: functional
[3] = test system: Enterococcus faecium; experiment: Antibacterial activity against vancomycin-resistant Enterococcus faecium DAPS assessed as inhibition of bacterial growth incubated for 24 hrs by CLSI based broth microdilution method; assay type: functional
[4] = test system: Escherichia coli; experiment: Antibacterial activity against Escherichia coli K1 RS218 assessed as inhibition of bacterial growth incubated for 24 hrs by CLSI based broth microdilution method; assay type: functional
[5] = test system: Staphylococcus epidermidis; experiment: Antibacterial activity against methicillin-resistant Staphylococcus epidermidis assessed as inhibition of bacterial growth incubated for 24 hrs by CLSI based broth microdilution method; assay type: functional
[6] = test system: Haemophilus influenzae; experiment: Antibacterial activity against Haemophilus influenzae 1 assessed as inhibition of bacterial growth incubated for 24 hrs by CLSI based broth microdilution method; assay type: functional
[7] = test system: Haemophilus influenzae; experiment: Antibacterial activity against Haemophilus influenzae 2 assessed as inhibition of bacterial growth incubated for 24 hrs by CLSI based broth microdilution method; assay type: functional
[8] = test system: Escherichia coli; experiment: Antibacterial activity against Escherichia coli LptD4213 assessed as inhibition of bacterial growth incubated for 18 hrs by broth microdilution method; assay type: functional
[9] = test system: Acinetobacter baumannii; experiment: Antibacterial activity against Acinetobacter baumannii 5075 assessed as inhibition of bacterial growth incubated for 24 hrs by CLSI based broth microdilution method; assay type: functional
[10] = test system: A549; experiment: Cytotoxicity against human A549 cells assessed as increase in LDH release at 16 microg/ml incubated for 24 hrs; assay type: toxicity, cell-based; conditions: a549, 24 h, dose 16 µg/ml

With `C/C(=C\[C@H]1C=C[C@H]2CC[C@@H](C)[C@@H]2[C@H]1C(=O)c1cc(Cl)c(Cl)[nH]1)C[C@@H](C)C(=O)O` the MIC [1] was > 16 µg/mL, the MIC [2] was > 16 µg/mL and the MIC [3] was > 16 µg/mL. The MIC [4] was > 16 µg/mL.
With `C/C(=C\[C@H]1C=C[C@H]2CC[C@@H](C)[C@@H]2[C@H]1C(=O)c1[nH]c(Cl)c(Cl)c1Cl)C[C@@H](C)C(=O)O` the MIC [1] was 2 µg/mL (≈ 4.36 µM), the MIC [2] was 4 µg/mL (≈ 8.72 µM) and the MIC [3] was 4 µg/mL (≈ 8.72 µM). The MIC [5] was 4 µg/mL (≈ 8.72 µM), the MIC [6] was 1 µg/mL (≈ 2.18 µM) and the MIC [7] was 2 µg/mL (≈ 4.36 µM). The MIC [8] was 4 µg/mL (≈ 8.72 µM), the MIC [4] was > 32 µg/mL and the MIC [9] was > 32 µg/mL. The Activity [10] was “Toxic”.

Reference: ChEMBL document CHEMBL6078656, “Pattern-Based Genome Mining Guides Discovery of the Antibiotic Indanopyrrole A from a Marine Streptomycete” (J Nat Prod, 2024)
